According to the NIST ThermoML archive (doi:10.1021/je401036f):
Numbers after ± are expanded uncertainties.

Assay: refractive index (Na D-line) (dimensionless); xn = mol fraction of the nth substance listed
Settings: 101 kPa, Liquid, Standard Abbe refractometry

CC(O)CN (stereo not given) [1-amino-2-propanol] + CCC(C)O
refractive index
Settings | 288.15 K | 293.15 K | 298.15 K | 303.15 K | 308.15 K | 313.15 K | 318.15 K | 323.15 K | 328.15 K | 333.15 K
x1 = 0.1003 | 1.4039 ± 0.0004 | 1.4018 ± 0.0004 | 1.3996 ± 0.0004 | 1.3974 ± 0.0004 | 1.3952 ± 0.0004 | 1.3929 ± 0.0004 | 1.3905 ± 0.0004 | 1.3881 ± 0.0004 | 1.3857 ± 0.0004 | 1.3832 ± 0.0004
x1 = 0.2005 | 1.4082 ± 0.0004 | 1.4062 ± 0.0004 | 1.404 ± 0.0004 | 1.4019 ± 0.0004 | 1.3996 ± 0.0004 | 1.3974 ± 0.0004 | 1.3951 ± 0.0004 | 1.3928 ± 0.0004 | 1.3905 ± 0.0004 | 1.3881 ± 0.0004
x1 = 0.3 | 1.4128 ± 0.0004 | 1.4107 ± 0.0004 | 1.4086 ± 0.0004 | 1.4065 ± 0.0004 | 1.4043 ± 0.0004 | 1.4021 ± 0.0004 | 1.3999 ± 0.0004 | 1.3977 ± 0.0004 | 1.3955 ± 0.0004 | 1.3932 ± 0.0004
x1 = 0.3999 | 1.4177 ± 0.0004 | 1.4156 ± 0.0004 | 1.4135 ± 0.0004 | 1.4114 ± 0.0004 | 1.4093 ± 0.0004 | 1.4071 ± 0.0004 | 1.4049 ± 0.0004 | 1.4028 ± 0.0004 | 1.4006 ± 0.0004 | 1.3983 ± 0.0004
x1 = 0.5 | 1.4228 ± 0.0004 | 1.4207 ± 0.0004 | 1.4186 ± 0.0004 | 1.4165 ± 0.0004 | 1.4144 ± 0.0004 | 1.4123 ± 0.0004 | 1.4102 ± 0.0004 | 1.408 ± 0.0004 | 1.4059 ± 0.0004 | 1.4036 ± 0.0004
x1 = 0.6001 | 1.428 ± 0.0004 | 1.4259 ± 0.0004 | 1.4239 ± 0.0004 | 1.4218 ± 0.0004 | 1.4197 ± 0.0004 | 1.4176 ± 0.0004 | 1.4154 ± 0.0004 | 1.4133 ± 0.0004 | 1.4112 ± 0.0004 | 1.409 ± 0.0004
x1 = 0.7 | 1.4332 ± 0.0005 | 1.4312 ± 0.0005 | 1.4292 ± 0.0005 | 1.4271 ± 0.0005 | 1.425 ± 0.0005 | 1.4229 ± 0.0005 | 1.4208 ± 0.0005 | 1.4187 ± 0.0005 | 1.4166 ± 0.0005 | 1.4144 ± 0.0005
x1 = 0.8 | 1.4386 ± 0.0005 | 1.4366 ± 0.0005 | 1.4345 ± 0.0005 | 1.4325 ± 0.0005 | 1.4304 ± 0.0005 | 1.4284 ± 0.0005 | 1.4263 ± 0.0005 | 1.4242 ± 0.0005 | 1.4221 ± 0.0005 | 1.42 ± 0.0005
x1 = 0.8999 | 1.4442 ± 0.0005 | 1.4422 ± 0.0005 | 1.4402 ± 0.0005 | 1.4382 ± 0.0005 | 1.4362 ± 0.0005 | 1.4342 ± 0.0005 | 1.4322 ± 0.0005 | 1.4302 ± 0.0005 | 1.4281 ± 0.0005 | 1.426 ± 0.0005
x1 = 1 | 1.45 ± 0.0005 | 1.448 ± 0.0005 | 1.446 ± 0.0005 | 1.444 ± 0.0005 | 1.4419 ± 0.0005 | 1.4399 ± 0.0005 | 1.4378 ± 0.0005 | 1.4358 ± 0.0005 | 1.4337 ± 0.0005 | 1.4315 ± 0.0005

CC(O)CN (stereo not given) [1-amino-2-propanol] + CCCCO
refractive index
Settings | 288.15 K | 293.15 K | 298.15 K | 303.15 K | 308.15 K | 313.15 K | 318.15 K | 323.15 K | 328.15 K | 333.15 K
x1 = 0.1 | 1.4058 ± 0.0004 | 1.4038 ± 0.0004 | 1.4018 ± 0.0004 | 1.3998 ± 0.0004 | 1.3977 ± 0.0004 | 1.3956 ± 0.0004 | 1.3934 ± 0.0004 | 1.3913 ± 0.0004 | 1.3892 ± 0.0004 | 1.387 ± 0.0004
x1 = 0.2005 | 1.4104 ± 0.0004 | 1.4084 ± 0.0004 | 1.4064 ± 0.0004 | 1.4043 ± 0.0004 | 1.4022 ± 0.0004 | 1.4001 ± 0.0004 | 1.398 ± 0.0004 | 1.3958 ± 0.0004 | 1.3937 ± 0.0004 | 1.3915 ± 0.0004
x1 = 0.3 | 1.4151 ± 0.0004 | 1.413 ± 0.0004 | 1.411 ± 0.0004 | 1.4089 ± 0.0004 | 1.4068 ± 0.0004 | 1.4047 ± 0.0004 | 1.4026 ± 0.0004 | 1.4005 ± 0.0004 | 1.3983 ± 0.0004 | 1.3961 ± 0.0004
x1 = 0.3999 | 1.4198 ± 0.0004 | 1.4178 ± 0.0004 | 1.4157 ± 0.0004 | 1.4136 ± 0.0004 | 1.4115 ± 0.0004 | 1.4094 ± 0.0004 | 1.4073 ± 0.0004 | 1.4051 ± 0.0004 | 1.403 ± 0.0004 | 1.4008 ± 0.0004
x1 = 0.5 | 1.4246 ± 0.0004 | 1.4226 ± 0.0004 | 1.4205 ± 0.0004 | 1.4184 ± 0.0004 | 1.4163 ± 0.0004 | 1.4142 ± 0.0004 | 1.4121 ± 0.0004 | 1.4099 ± 0.0004 | 1.4078 ± 0.0004 | 1.4056 ± 0.0004
x1 = 0.6001 | 1.4295 ± 0.0004 | 1.4275 ± 0.0004 | 1.4254 ± 0.0004 | 1.4234 ± 0.0004 | 1.4213 ± 0.0004 | 1.4191 ± 0.0004 | 1.417 ± 0.0004 | 1.4149 ± 0.0004 | 1.4128 ± 0.0004 | 1.4106 ± 0.0004
x1 = 0.7 | 1.4345 ± 0.0005 | 1.4324 ± 0.0005 | 1.4304 ± 0.0005 | 1.4283 ± 0.0005 | 1.4262 ± 0.0005 | 1.4242 ± 0.0005 | 1.4221 ± 0.0005 | 1.42 ± 0.0005 | 1.4178 ± 0.0005 | 1.4156 ± 0.0005
x1 = 0.8 | 1.4395 ± 0.0005 | 1.4375 ± 0.0005 | 1.4354 ± 0.0005 | 1.4334 ± 0.0005 | 1.4313 ± 0.0005 | 1.4292 ± 0.0005 | 1.4272 ± 0.0005 | 1.425 ± 0.0005 | 1.4229 ± 0.0005 | 1.4208 ± 0.0005
x1 = 0.8997 | 1.4446 ± 0.0005 | 1.4426 ± 0.0005 | 1.4406 ± 0.0005 | 1.4385 ± 0.0005 | 1.4365 ± 0.0005 | 1.4344 ± 0.0005 | 1.4324 ± 0.0005 | 1.4303 ± 0.0005 | 1.4282 ± 0.0005 | 1.426 ± 0.0005
x1 = 1 | 1.45 ± 0.0005 | 1.448 ± 0.0005 | 1.446 ± 0.0005 | 1.444 ± 0.0005 | 1.4419 ± 0.0005 | 1.4399 ± 0.0005 | 1.4378 ± 0.0005 | 1.4358 ± 0.0005 | 1.4337 ± 0.0005 | 1.4315 ± 0.0005
